Values of other authors as cited in patent US20090252711A1, “Stem Cells And Methods Of Making And Using Stem Cells” (priority 2006, published 2009).

Experiments:
cultured ASCs = conditions: Cho et al. 2005
neural stem cells = conditions: Marin-Husstege et al. 2002
hTERT = conditions: normal human cells; Hou et al.
lung fibroblast cells = conditions: Mukhopadhyay et al. 2005

| Compound | differentiation towards the osteogenic (bone) lineage (cultured ASCs) | differentiation of neural stem cells towards the astrocyte cell type (neural stem cells) | differentiation of neural stem cells towards the oligodendrocyte cell type (neural stem cells) | expression of the gene hTERT (hTERT) | telomerase activity (lung fibroblast cells) |
| --- | --- | --- | --- | --- | --- |
| CCCC(CCC)C(=O)O [Valproic acid] | enhanced differentiation | – | – | – | – |
| CC(/C=C/C(=O)NO)=C\[C@@H](C)C(=O)c1ccc(N(C)C)cc1 [trichostatin A] | enhanced differentiation | not towards the astrocyte cell type | blocked | upregulation | induced |
